Reference: ChEMBL document CHEMBL4190352, “Continued SAR exploration of 1,2,4-thiadiazole-containing scaffolds in the design of free fatty acid receptor 1 (GPR40) agonists” (Eur J Med Chem, 2017)
Active and inactive are the calls of the source. The rule behind the calls is not given here.

Experiments:
Format in all cases: functional, cell-based
[1] = molecular target: T1, Free fatty acid receptor 1 (Homo sapiens, UniProt O14842); assay: Agonist activity at human GPR40/FFA1 expressed in CHO cells assessed as increase in calcium flux at 1 uM by Fluo-8 AM dye based FLIPR method relative to 10 uM GW9508
T1 sequence (O14842 whole entry): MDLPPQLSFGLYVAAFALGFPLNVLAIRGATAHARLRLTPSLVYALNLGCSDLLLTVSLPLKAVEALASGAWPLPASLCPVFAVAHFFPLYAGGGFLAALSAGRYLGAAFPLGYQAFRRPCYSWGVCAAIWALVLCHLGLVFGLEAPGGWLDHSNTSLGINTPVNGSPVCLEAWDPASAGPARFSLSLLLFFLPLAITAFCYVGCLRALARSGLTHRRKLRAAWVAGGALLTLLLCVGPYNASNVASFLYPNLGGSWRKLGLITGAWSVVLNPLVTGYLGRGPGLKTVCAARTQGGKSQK

[2] = molecular target: T1, Free fatty acid receptor 1; assay: Agonist activity at human GPR40/FFA1 expressed in CHO cells assessed as increase in calcium flux at 1 uM by Fluo-8 AM dye based FLIPR method
[3] = molecular target: T2, Free fatty acid receptor 3 (Homo sapiens) (UniProt O14843); assay: Agonist activity at GPR41/FFA3 (unknown origin) expressed in CHO cells assessed as increase in calcium flux at 10 uM by Fluo-8 AM dye based FLIPR method
T2 sequence (whole entry): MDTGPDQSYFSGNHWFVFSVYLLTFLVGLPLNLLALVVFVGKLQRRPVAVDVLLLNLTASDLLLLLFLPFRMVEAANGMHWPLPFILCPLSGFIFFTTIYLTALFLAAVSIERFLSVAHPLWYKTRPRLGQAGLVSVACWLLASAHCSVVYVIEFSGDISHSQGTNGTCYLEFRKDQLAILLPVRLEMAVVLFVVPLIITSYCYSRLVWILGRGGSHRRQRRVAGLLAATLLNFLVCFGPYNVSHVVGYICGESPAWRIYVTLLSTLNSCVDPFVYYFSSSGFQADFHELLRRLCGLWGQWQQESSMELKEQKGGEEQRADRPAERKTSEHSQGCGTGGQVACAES

[4] = molecular target: T3, Free fatty acid receptor 2 (Homo sapiens) (UniProt O15552); assay: Agonist activity at GPR43/FFA2 (unknown origin) expressed in CHO cells assessed as increase in calcium flux at 10 uM by Fluo-8 AM dye based FLIPR method
T3 sequence (whole entry): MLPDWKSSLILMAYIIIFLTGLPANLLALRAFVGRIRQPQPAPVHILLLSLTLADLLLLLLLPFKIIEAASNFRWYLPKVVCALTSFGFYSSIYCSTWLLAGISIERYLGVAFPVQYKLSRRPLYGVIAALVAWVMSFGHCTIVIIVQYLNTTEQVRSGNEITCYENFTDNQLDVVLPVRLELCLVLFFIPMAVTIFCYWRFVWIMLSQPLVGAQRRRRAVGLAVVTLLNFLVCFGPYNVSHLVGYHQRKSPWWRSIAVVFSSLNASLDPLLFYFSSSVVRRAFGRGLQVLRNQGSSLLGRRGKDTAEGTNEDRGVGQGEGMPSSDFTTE

[5] = molecular target: T4, Free fatty acid receptor 4 (Homo sapiens) (UniProt Q5NUL3); assay: Agonist activity at GPR120/FFA4 (unknown origin) expressed in CHO cells assessed as increase in calcium flux at 10 uM by Fluo-8 AM dye based FLIPR method
T4 sequence (whole entry): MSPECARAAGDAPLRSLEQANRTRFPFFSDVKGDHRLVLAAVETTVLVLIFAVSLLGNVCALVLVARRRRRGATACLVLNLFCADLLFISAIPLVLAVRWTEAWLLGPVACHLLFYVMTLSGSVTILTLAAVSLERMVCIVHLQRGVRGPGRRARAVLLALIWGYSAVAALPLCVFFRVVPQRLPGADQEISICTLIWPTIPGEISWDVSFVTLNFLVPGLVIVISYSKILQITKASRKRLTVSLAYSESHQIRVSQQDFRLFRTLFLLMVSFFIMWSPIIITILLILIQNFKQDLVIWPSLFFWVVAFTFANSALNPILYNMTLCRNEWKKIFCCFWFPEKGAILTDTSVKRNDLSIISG

Row | Compound | Activity [1] [%] | EC50 [2] [µM] | Activity [3] | Activity [4] | Activity [5]
1 | Cc1cccc(NC(=O)c2nnc(C(=O)Nc3ccc(OCC(=O)O)cc3)s2)c1 | 6 | > 10 | – | – | –
2 | O=C(O)CCc1ccc(NC(=O)c2nnc(COc3ccc(F)cc3)s2)cc1 | 48.5 | 5.39 | inactive | inactive | inactive
3 | Cc1nnc(NC(=O)c2nnc(C(=O)Nc3ccc(OCC(=O)O)cc3)s2)s1 | 9.8 | > 10 | – | – | –
4 | COc1cccc(NC(=O)c2nnc(C(=O)Nc3ccc(OCC(=O)O)cc3)s2)c1 | 9.2 | > 10 | – | – | –
5 | O=C(O)COc1ccc(NC(=O)c2nnc(C(=O)Nc3ccc(F)c(F)c3)s2)cc1 | 6.6 | > 10 | – | – | –
6 | O=C(O)COc1ccc(NC(=O)c2nnc(C(=O)Nc3ccc(Br)cc3)s2)cc1 | 5.9 | > 10 | – | – | –
7 | CCOC(=O)c1cccc(NC(=O)c2nnc(C(=O)Nc3ccc(OCC(=O)O)cc3)s2)c1 | 6.4 | > 10 | – | – | –
8 | O=C(O)COc1ccc(NC(=O)c2nnc(C(=O)Nc3ccc(F)cc3F)s2)cc1 | 6.6 | > 10 | – | – | –
9 | O=C(O)CCc1ccc(NC(=O)c2nnc(COc3cccc(C(F)(F)F)c3)s2)cc1 | 70.1 | 3.09 | inactive | inactive | inactive
10 | Cc1cccc(NC(=O)c2nnc(C(=O)Nc3ccc(OCC(=O)O)cc3)s2)c1C | 6.6 | > 10 | – | – | –
11 | O=C(O)COc1ccc(NC(=O)c2nnc(C(=O)Nc3ccc(F)cc3)s2)cc1 | 6 | > 10 | – | – | –
12 | O=C(O)CCc1ccc(NC(=O)c2nnc(Cc3cccc(F)c3)s2)cc1 | 60.3 | 5.02 | inactive | inactive | inactive
13 | Cc1ccc(NC(=O)c2nnc(C(=O)Nc3ccc(OCC(=O)O)cc3)s2)cc1C | 2.8 | > 10 | – | – | –
14 | O=C(O)CCc1ccc(NC(=O)c2nnc(CC(c3ccccc3)c3ccc4c(c3)OCO4)s2)cc1 (centres undefined) | 60.3 | 4.12 | inactive | inactive | inactive
15 | COc1ccc(C)cc1NC(=O)c1nnc(C(=O)Nc2ccc(OCC(=O)O)cc2)s1 | 6.6 | > 10 | – | – | –
16 | O=C(O)COc1ccc(NC(=O)c2nnc(C(=O)Nc3ccc(Cl)cc3)s2)cc1 | 4.2 | > 10 | – | – | –
17 | Cc1ccccc1NC(=O)c1nnc(C(=O)Nc2ccc(OCC(=O)O)cc2)s1 | 6.6 | > 10 | – | – | –
18 | Cc1cccc(OCc2nnc(C(=O)Nc3ccc(CCC(=O)O)cc3)s2)c1 | 82.4 | 3.26 | inactive | inactive | inactive
19 | O=C(O)COc1ccc(NC(=O)c2nnc(C(=O)Nc3ccccc3)s2)cc1 | 7.8 | > 10 | – | – | –
20 | CCOC(=O)c1ccc(NC(=O)c2nnc(C(=O)Nc3ccc(OCC(=O)O)cc3)s2)cc1 | 9.4 | > 10 | – | – | –
21 | O=C(O)CCc1ccc(NC(=O)c2nnc(CC(c3ccccc3)c3ccc(Cl)cc3)s2)cc1 (centres undefined) | 84.9 | 2.71 | inactive | inactive | inactive
22 | O=C(O)CCc1ccc(NC(=O)c2nnc(Cc3ccccc3)s2)cc1 | 70.1 | 3.67 | inactive | inactive | inactive
23 | Cc1ccc(NC(=O)c2nnc(C(=O)Nc3ccc(OCC(=O)O)cc3)s2)cc1 | 7 | > 10 | – | – | –
24 | O=C(O)COc1ccc(NC(=O)c2nnc(C(=O)Nc3ccccc3F)s2)cc1 | 6 | > 10 | – | – | –

These reach a lower EC50 [2]. Values come first.

Row | Activity [1] [%] | EC50 [2] [µM] | Activity [3] | Activity [4] | Activity [5] | Compound
25 | 74.7 | 2.54 | inactive | inactive | inactive | Cc1ccc(OCc2nnc(C(=O)Nc3ccc(CCC(=O)O)cc3)s2)c(C)c1
26 | 72.5 | 2.43 | inactive | inactive | inactive | COc1ccc(OCc2nnc(C(=O)Nc3ccc(CCC(=O)O)cc3)s2)cc1
27 | 79.4 | 2.39 | inactive | inactive | inactive | O=C(O)CCc1ccc(NC(=O)c2nnc(Cc3cccc(Cl)c3)s2)cc1
28 | 72.3 | 2.39 | inactive | inactive | inactive | O=C(O)CCc1ccc(NC(=O)c2nnc(Cc3ccc(Cl)cc3)s2)cc1
29 | 76.9 | 2.17 | inactive | inactive | inactive | Cc1ccc(OCc2nnc(C(=O)Nc3ccc(CCC(=O)O)cc3)s2)cc1
30 | 82.9 | 1.57 | inactive | inactive | inactive | O=C(O)CCc1ccc(NC(=O)c2nnc(COc3cccc(Cl)c3)s2)cc1
31 | 88.2 | 1.53 | inactive | inactive | inactive | Cc1ccc(C)c(OCc2nnc(C(=O)Nc3ccc(CCC(=O)O)cc3)s2)c1
32 | 89.9 | 1.52 | inactive | inactive | inactive | Cc1ccccc1OCc1nnc(C(=O)Nc2ccc(CCC(=O)O)cc2)s1
33 | 91.2 | 1.38 | inactive | inactive | inactive | O=C(O)CCc1ccc(NC(=O)c2nnc(COc3ccc4c(c3)CCC4)s2)cc1
34 | 78.9 | 1.35 | inactive | inactive | inactive | COc1ccc(C(Cc2nnc(C(=O)Nc3ccc(CCC(=O)O)cc3)s2)c2ccccc2)cc1 (centres undefined)
35 | 74.4 | 1.17 | inactive | inactive | inactive | CCc1ccc(OCc2nnc(C(=O)Nc3ccc(CCC(=O)O)cc3)s2)cc1
36 | 64.9 | 1.13 | inactive | inactive | inactive | Cc1ccc(OCc2nnc(C(=O)Nc3ccc(CCC(=O)O)cc3)s2)cc1C
37 | 68.6 | 1.02 | inactive | inactive | inactive | O=C(O)CCc1ccc(NC(=O)c2nnc(CC(c3ccccc3)c3ccccc3F)s2)cc1 (centres undefined)
